Assay [1] deals with ASB8 knockout and overexpressing cells. Kind of assay: MTS cell viability assay in ASB8 knockout and ASB8 overexpressing cells. It is filed as cell-based, human. Conditions: HAP1 four days, KMS-28BM six days of treatment. The text has this:
(§1) Figure 4. XPO1 protein degradation is regulated by ASB8. a-b Sensitization profile of HAP1 cells with either knockout or overexpression of ASB8 under selection with selinexor. Cell viability when transduced with a safe-targeting or ASB8 targeting sgRNA (a). Cell viability when transduced with a non-coding stuffer sequence or ASB8 coding sequence at two different multiplicities of infection (MOI) (b). After four days of treatment with compound at the indicated concentrations, cell viability was measured by MTS assay. Data were normalized to untreated cells and represent mean ±SD of three separate experiments performed in triplicate. IC50 values were compared with control using an extra sum-of-squares F-test. c-d Monitoring of XPOL degradation in HAP1 cells with western blot. Comparison of cells stably transduced with a safe-targeting versus ASB8 targeting sgRNA (c) or with a stuffer sequence versus ASB8 coding sequence (d). Cells were treated overnight with selinexor and bortezomib as indicated. […]
(§2) Figure 10. a Viability of KMS-28BM cells stably transduced with a stuffer or ASB8 coding lentiviral vector and treated with different concentrations of selinexor. b-e Viability of ASB8 knockout and ASB8 overexpressing HAP1 cells treated with different concentrations of KPT-9274 (b, c) or ispinesib (d, e). f-g Viability of ASB8 overexpressing KMS-28BM cells treated with different concentrations of KPT-9274 (f) or ispinesib (g). After four days (HAP1) or six days (KMS-28BM) of treatment with compound at the indicated concentrations, cell viability was measured by MTS assay. […] IC50 values were compared with control using an extra sum-of-squares F-test. h Representative images of fluorescence microscopy imaging of subcellular ASB8 localization. […]
HAP1 cells were seeded in 96-well plates at 2500 cells/well in 100 µL medium. […] For each experiment, absorbance measurements of three replicate wells were averaged. […]
Background: Tetrazolium dyes change colour on reduction, which living cells bring about.

Assay [2] deals with T1, XPO1 (Homo sapiens, UniProt O14980).
T1 construct: endogenous in cells
Kind of assay: Western blot (Simple Western) monitoring XPO1 degradation in HAP1 cells. It is filed as cell-based. Conditions: for XPO1 degradation: overnight treatment. The text has this: Figure 4. XPO1 protein degradation is regulated by ASB8. a-b Sensitization profile of HAP1 cells with either knockout or overexpression of ASB8 under selection with selinexor. Cell viability when transduced with a safe-targeting or ASB8 targeting sgRNA (a). Cell viability when transduced with a non-coding stuffer sequence or ASB8 coding sequence at two different multiplicities of infection (MOI) (b). After four days of treatment with compound at the indicated concentrations, cell viability was measured by MTS assay. Data were normalized to untreated cells and represent mean ±SD of three separate experiments performed in triplicate. IC50 values were compared with control using an extra sum-of-squares F-test. c-d Monitoring of XPOL degradation in HAP1 cells with western blot. Comparison of cells stably transduced with a safe-targeting versus ASB8 targeting sgRNA (c) or with a stuffer sequence versus ASB8 coding sequence (d). Cells were treated overnight with selinexor and bortezomib as indicated. Cells were harvested and total lysates were probed for XPO1 and TUBB (β-tubulin) protein levels. e Time-of-drug-addition assay in HAP1 cells harboring a stuffer or ASB8 coding sequence (MOI=0.2). Duration of treatment with selinexor is as indicated. For bortezomib, length of treatment was 24 h for all conditions. f Selinexor-induced degradation of XPO1 in HAP1 cells with an endogenous Cys528Ser mutation introduced by CRISPR-mediated homology-directed repair. Following stable transduction of XPOL wild-type and mutant cells with a stuffer or ASB8 coding sequence (MOI=0.2), cells were treated overnight with compound as indicated.
For the experiments monitoring XPO1 degradation, HAP1 cells were seeded in 6-well plates at 100,000 cells/mL. The next day, cells were treated with selinexor and/or bortezomib as indicated. The pan-caspase inhibitor Q-VD-OPh was added to all conditions at 10 µM final concentration to delay onset of apoptosis. Cells were treated with compound overnight or as indicated. Next, cells were harvested, washed with ice-cold PBS and lysed in RIPA buffer (Thermo Fisher Scientific) with 1× HALT Protease Inhibitor Cocktail (Thermo Fisher Scientific) on ice for 20 min. Cell debris was removed by centrifugation at 20.000 × g and 4 °C for 10 min and total protein content was quantified with the Pierce BCA Protein Assay kit (Thermo Fisher Scientific). We used an automated, capillary-based Simple Western size assay (Wes, ProteinSimple) to detect and quantify our proteins of interest. 5 µL of lysate at a final concentration of 200 µg/mL was loaded onto the assay plate. For detection, the following primary antibodies and dilutions were used: CRM1/XPO1 (NB100-79802, Novus, 1:1000), TUBB (NB600-936, Novus, 1:40) and FLAG (F4049, Sigma-Aldrich, 1:250). […]

For assay [3], the system named is HAP1 cells. Description: Live cell count to establish selinexor IC values for CRISPR screening. The format is cell-based. Conditions: Homo sapiens, 96 h, live cells counted after four days and compared to untreated control flask. The text has this:
To detect gene loss-of-function events that modulate sensitivity to XPO1 inhibition, we conducted genome-wide CRISPR-Cas9 screens in cells under selection with selinexor. We selected HAP1 cells for our initial screen as this chronic myeloid leukemia cell line is a relevant model^66,67 and has suitable characteristics for CRISPR screening, including a high proliferation rate and transduction efficiency. HAP1 cells were transduced with the Brunello genome-wide CRISPR knockout library in the one-vector configuration, in which sgRNA and Cas9 are expressed from a single lentiviral construct. Cells were split into control (DMSO) and selinexor-treated arms, further divided into three replicates per arm and passaged in parallel for 24 days (Fig. 1a). Selinexor was used at a concentration of 100 nM, corresponding to the IC50, i.e., the concentration at which the live cell count in the treated arm was half of that in the control arm after […]. At each passage, cells were harvested and per arm, an equal number of cells was reseeded with fresh compound. […]
To establish IC values for screening, cells were seeded in 150-cm^2 flasks and treated with selinexor at different concentrations for four days after which live cells were counted and compared to an untreated control flask. […]

Assay [4] has as its system ASB8. Kind of assay: Immunofluorescence staining of subcellular ASB8 localization in HAP1 cells. It is filed as cell-based, human. Particulars: stable FLAG-ASB8 expressing HAP1 cells; 200 nM overnight. From the text: Figure 10. a Viability of KMS-28BM cells stably transduced with a stuffer or ASB8 coding lentiviral vector and treated with different concentrations of selinexor. b-e Viability of ASB8 knockout and ASB8 overexpressing HAP1 cells treated with different concentrations of KPT-9274 (b, c) or ispinesib (d, e). f-g Viability of ASB8 overexpressing KMS-28BM cells treated with different concentrations of KPT-9274 (f) or ispinesib (g). After four days (HAP1) or six days (KMS-28BM) of treatment with compound at the indicated concentrations, cell viability was measured by MTS assay. Data were normalized to untreated cells and represent mean ±SD of two or three separate experiments performed in triplicate. IC50 values were compared with control using an extra sum-of-squares F-test. h Representative images of fluorescence microscopy imaging of subcellular ASB8 localization. HAP1 cells with a stably integrated FLAG-ASB8 or a non-coding stuffer sequence were treated overnight with DMSO or 200 nM selinexor. Cells were fixed and stained with a primary anti-FLAG antibody. Nuclei were stained with DAPI. Figure 11. Co-immunoprecipitation of XPO1 with ASB8. HEK293T cells were transiently transfected with XPOL together with either FLAG-ASB8 or KPNA3-FLAG (control) plasmids. After 24 hours, selinexor was added at the indicated concentrations and cells were incubated for an additional 15 minutes. […]

Assay [5] has as its system DS cells. Kind of assay: Live cell count to establish selinexor IC values for CRISPR screening. It is filed as cell-based. Conditions: Homo sapiens, 96 h, live cells counted after four days and compared to untreated control flask. As to the method: (§3) To establish IC values for screening, cells were seeded in 150-cm^2 flasks and treated with selinexor at different concentrations for four days after which live cells were counted and compared to an untreated control flask. HAP1, KMS-28BM and SK-MM-1 cells were screened with the one-vector library encoding both sgRNA and Cas9 while for DS and RL cells, the two-vector library, which uses two separate vectors for the sgRNA and Cas9, was used. Cells were transduced at a MOI of approximately 0.25 and a coverage of >200-fold. Puromycin-selected cells were allowed to recover for 4-7 days after which selection with selinexor started. […] In addition, KMS-28BM were also screened at IC20, corresponding to a concentration of 40 nM. Finally, for every cell line, a no-drug condition was included (DMSO). For each condition, three parallel replicates containing at least 20 × 10^6 cells each were initiated after puromycin selection and maintained independently throughout screening and downstream processing. Cells were passaged every 2-4 days and cell pellets of 20 × 10^6 were collected at regular intervals. Screening continued for >20 cell doublings, more precisely until day 24, 42, 28, 28 and 25 for HAP1, KMS-28BM, SK-MM-1, DS and RL cells, respectively.

Assay [6] deals with KMS-28BM cells. The assay is described as above. Conditions: Homo sapiens, 96 h, live cells counted after four days and compared to untreated control flask. It is filed as cell-based. The procedure: as §3
Assay [7] relates to RL cells. The description is as above. The format is cell-based. Particulars: Homo sapiens, 96 h, live cells counted after four days and compared to untreated control flask. The procedure:
as §3

Assay [8] deals with SK-MM-1 cells. Described as above. It is filed as cell-based. Particulars: Homo sapiens, 96 h, live cells counted after four days and compared to untreated control flask. The procedure:
as §3

In assay [9] the target is T2, ASB8 interacts with XPO1 (Homo sapiens, UniProt O14980).
T2 construct: expressed in transfected cells; host or cells: HEK293T cells, transient transfection (TurboFectin 8.0)
Description: Co-immunoprecipitation of XPO1 with FLAG-ASB8 in HEK293T cells. It is filed as binding. Conditions: HEK293T cells co-transfected with XPO1 and FLAG-ASB8; 15 minutes treatment; higher concentrations. The procedure: Figure 5. ASB8 interacts with XPO1. HEK293T cells were transiently transfected with XPO1 alone or together with either FLAG-ASB8 or FLAG-luc2 plasmids. After 24 hours, selinexor was added at the indicated concentrations and cells were incubated for 15 minutes. Next, cells were collected and incubated with lysis buffer for 20 minutes (whole-cell lysate, WCL). From these lysates, FLAG fusions were pulled down and co-immunoprecipitation of XPO1 was checked with western blot (IP: FLAG).
as §2
The protocol for lysis and co-immunoprecipitation was modified from an earlier report^64. […] After 15 min of incubation, cells were harvested and counted. […]

For assay [10], the target named is T3, XPO1 Cys528Ser mutation (Homo sapiens, UniProt O14980, C528S).
T3 construct: HAP1 cells with an endogenous Cys528Ser mutation introduced by CRISPR-mediated homology-directed repair; endogenous in cells
Kind of assay: Western blot (Simple Western) monitoring XPO1 degradation in HAP1 XPO1 C528S mutant cells. It is filed as cell-based. Particulars: HAP1 cells with endogenous XPO1 Cys528Ser mutation; control and ASB8 overexpressing; overnight treatment.
Text: as §1, with “(d).” for “(d). Cells were treated overnight with selinexor and bortezomib as indicated.”
For the experiments monitoring XPO1 degradation, HAP1 cells were seeded in 6-well plates at 100,000 cells/mL. […] Cell debris was removed by centrifugation at 20.000 × g and 4 °C for 10 min and total protein content was quantified with the Pierce BCA Protein Assay kit (Thermo Fisher Scientific). We used an automated, capillary-based Simple Western size assay (Wes, ProteinSimple) to detect and quantify our proteins of interest. […]
Background: Immunoblotting shows a protein as a band on a membrane.

pIC50: −log10 of the molar value.

The term pIC50 denotes the negative decadic logarithm of the IC50, by convention in mol/L. Higher therefore signals a small IC50. Broadly, the IC20 is the concentration at which the effect reaches the 20% level. The low end stands for greater potency, the high end for weaker potency.

T1 sequence (O14980 whole entry): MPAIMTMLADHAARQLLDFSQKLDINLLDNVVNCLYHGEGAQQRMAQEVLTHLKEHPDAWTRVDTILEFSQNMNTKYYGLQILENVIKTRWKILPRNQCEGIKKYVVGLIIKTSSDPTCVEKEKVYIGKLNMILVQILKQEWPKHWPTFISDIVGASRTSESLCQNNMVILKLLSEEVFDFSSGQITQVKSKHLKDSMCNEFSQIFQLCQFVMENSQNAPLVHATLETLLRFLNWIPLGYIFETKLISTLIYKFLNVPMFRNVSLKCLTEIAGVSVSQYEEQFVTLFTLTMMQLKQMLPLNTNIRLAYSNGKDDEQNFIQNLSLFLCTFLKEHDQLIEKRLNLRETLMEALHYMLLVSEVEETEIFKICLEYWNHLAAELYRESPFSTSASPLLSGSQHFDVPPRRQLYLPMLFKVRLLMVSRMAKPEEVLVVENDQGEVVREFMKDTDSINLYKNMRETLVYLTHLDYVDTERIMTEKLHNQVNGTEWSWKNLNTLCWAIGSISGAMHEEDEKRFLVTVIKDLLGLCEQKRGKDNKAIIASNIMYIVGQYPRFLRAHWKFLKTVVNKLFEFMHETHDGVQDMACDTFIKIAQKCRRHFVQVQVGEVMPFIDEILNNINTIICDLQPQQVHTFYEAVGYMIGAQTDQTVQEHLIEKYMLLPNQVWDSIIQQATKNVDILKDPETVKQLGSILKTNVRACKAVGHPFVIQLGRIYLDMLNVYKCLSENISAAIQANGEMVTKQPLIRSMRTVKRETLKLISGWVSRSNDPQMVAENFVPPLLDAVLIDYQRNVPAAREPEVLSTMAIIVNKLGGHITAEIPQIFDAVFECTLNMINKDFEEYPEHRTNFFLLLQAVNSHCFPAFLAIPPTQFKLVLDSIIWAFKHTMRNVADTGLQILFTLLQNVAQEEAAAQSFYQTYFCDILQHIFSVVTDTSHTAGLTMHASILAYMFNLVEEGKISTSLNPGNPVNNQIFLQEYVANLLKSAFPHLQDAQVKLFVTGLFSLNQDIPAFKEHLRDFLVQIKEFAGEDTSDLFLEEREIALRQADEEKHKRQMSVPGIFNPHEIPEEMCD
T3 sequence (O14980 whole entry C528S): as the sequence (O14980 whole entry) above, with C528S counted along it
T2 sequence (O14980 whole entry): as the sequence (O14980 whole entry) above
T2 sequence (Q9H765 whole entry partner): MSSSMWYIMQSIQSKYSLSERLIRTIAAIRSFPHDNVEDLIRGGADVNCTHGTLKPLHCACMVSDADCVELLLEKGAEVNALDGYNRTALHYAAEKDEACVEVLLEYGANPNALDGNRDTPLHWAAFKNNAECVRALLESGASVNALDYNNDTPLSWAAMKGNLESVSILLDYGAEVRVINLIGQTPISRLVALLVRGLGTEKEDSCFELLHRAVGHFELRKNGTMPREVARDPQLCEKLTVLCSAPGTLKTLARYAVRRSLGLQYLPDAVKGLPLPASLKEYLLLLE

`Nc1ccc(/C=C/C(=O)NCc2cc3cc(-c4ccc(C(=O)N5CCC(F)(F)CC5)cc4)cc(-c4ccc(F)cc4)c3o2)cn1` [KPT-9274]: in [1], the “sensitivity (dose-response) in ASB8 knockout and overexpressing cells versus control” value was “no difference in response”.

Consider `CC(C)C[C@H](NC(=O)[C@H](Cc1ccccc1)NC(=O)c1cnccn1)B(O)O` [bortezomib], for which, in assay [2] (HAP1 control cells with safe-targeting sgRNA, co-treatment with selinexor overnight), the “effect on selinexor-induced XPO1 degradation” value is recorded as “prevented”.

On to `Cc1ccc(C(=O)N(CCCN)[C@@H](c2nc3cc(Cl)ccc3c(=O)n2Cc2ccccc2)C(C)C)cc1` [ispinesib], for which the “sensitivity (dose-response) in ASB8 knockout and overexpressing cells versus control” value in [1] is given as “no difference in response”.

Turning to `O=C(/C=C\n1cnc(-c2cc(C(F)(F)F)cc(C(F)(F)F)c2)n1)NNc1cnccn1` [selinexor], the XPO1 degradation entry is “did not observe selinexor-induced XPOL degradation to the same extent” in assay [2] (HAP1 ASB8 knockout cells); “XPO1 was profoundly depleted even in the presence of bortezomib” in [2] (HAP1 ASB8 overexpressing cells, with and without bortezomib); “dose-dependent degradation of XPO1” in assay [2] (HAP1 control cells with safe-targeting sgRNA); “did not trigger XPO1 degradation” in [10]. In addition, the pIC50 in [3] was 7.00; in assay [5], 6.70; in [6] it was 6.90; in assay [7] it was 7.40; in [8] it was 6.85. Besides, in assay [4], the “nuclear accumulation of ASB8” value is recorded as “did not observe nuclear accumulation of ASB8”. In assay [1], the “sensitivity (dose-response) in ASB8 knockout and overexpressing cells versus control” value is recorded as “increased sensitivity”. Besides, the IC20 in assay [6] came out at 40 nM. For the same molecule, the “amount of XPO1 co-immunoprecipitated with FLAG-ASB8” value in assay [9] is “increased the amount of immunoprecipitated XPO1”.

These data come from EP4407316A1, “PROTEASOMAL DEGRADATION OF PROTEINS” (Katholieke Universiteit Leuven, KU Leuven R&D, priority 2023, dated 2024).
